Measured values as given in ChEMBL document CHEMBL2331446, “Discovery of a potential anti-inflammatory agent: 3-oxo-29-noroleana-1,9(11),12-trien-2,20-dicarbonitrile” (J Med Chem, 2013).
pIC50: −log10 of the molar value. Active and inactive are the calls of the source.

Experiments:
RAW264.7 [1] = assay: Ratio of glycyrrhetinic acid to compound activity in mouse RAW264.7 cells; type: functional
Mus musculus [2] = assay: Antiinflammatory activity in ICR mouse assessed as protection against LPS-induced sepsis at 50 mg/kg, ip administered for 5 days prior to LPS-challenge measured after 2 hrs; type: functional, organism-based; parameters: dose 50 mg/kg
RAW264.7 [3] = assay: Cytotoxicity against mouse LPS-challenged RAW264.7 cells at 80 uM after 24 hrs by MTT assay; type: cell-based; settings: raw264.7, 24 h
Mus musculus [4] = assay: Antiinflammatory activity in ICR mouse assessed as reversal in LPS-induced weight loss at 12.5 to 200 mg/kg, ip administered for 5 days prior to LPS-challenge measured from day 9 to 11 relative to control; type: functional, organism-based
RAW264.7 [5] = assay: Antiinflammatory activity in mouse RAW264.7 cells assessed as inhibition of LPS-induced iNOS mRNA expression at 0.1 to 0.4 uM incubated for 2 hrs prior to LPS-challenge measured after 8 hrs by qPCR analysis; type: functional, cell-based
RAW264.7 [6] = assay: Effect on ERK level in mouse LPS-induced RAW264.7 cells at 0.1 to 0.4 uM incubated for 2 hrs prior to LPS-challenge measured after 30 mins by Western blot analysis; type: functional, cell-based
Mus musculus [7] = assay: Antiinflammatory activity in ICR mouse assessed as protection against LPS-induced sepsis at 12.5 to 200 mg/kg, ip administered for 5 days prior to LPS-challenge measured after 2 hrs post last dose; type: functional, organism-based
RAW264.7 [8] = assay: Inhibition of JNK phosphorylation in mouse LPS-induced RAW264.7 cells at 0.1 to 0.4 uM incubated for 2 hrs prior to LPS-challenge measured after 30 mins by Western blot analysis; type: cell-based
[9] = biological target: T1, NF-kappa-B inhibitor alpha (Mus musculus) (UniProt Q9Z1E3); assay: Inhibition of IkappaB phosphorylation in mouse LPS-induced RAW264.7 cells at 0.1 to 0.4 uM incubated for 2 hrs prior to LPS-challenge measured after 30 mins by Western blot analysis; type: cell-based
T1 sequence (whole entry): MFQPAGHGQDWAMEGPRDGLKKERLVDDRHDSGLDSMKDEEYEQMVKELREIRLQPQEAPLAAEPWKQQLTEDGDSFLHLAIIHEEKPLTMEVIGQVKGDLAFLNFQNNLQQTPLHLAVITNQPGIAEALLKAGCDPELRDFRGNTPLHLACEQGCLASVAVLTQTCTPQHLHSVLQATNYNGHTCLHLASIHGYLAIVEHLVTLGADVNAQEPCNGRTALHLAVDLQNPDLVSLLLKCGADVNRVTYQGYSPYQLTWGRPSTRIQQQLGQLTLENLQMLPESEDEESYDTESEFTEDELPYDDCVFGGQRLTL

[10] = biological target: T1, NF-kappa-B inhibitor alpha (Mus musculus); assay: Inhibition of IkappaBalpha degradation in mouse LPS-induced RAW264.7 cells assessed as increase in cytosolic IkappaB level at 0.1 to 0.4 uM incubated for 2 hrs prior to LPS-challenge measured after 30 mins by Western blot analysis; type: cell-based
RAW264.7 [11] = assay: Antiinflammatory activity in mouse RAW264.7 cells assessed as inhibition of LPS-induced NO production incubated for 2 hrs prior to LPS-challenge measured after 24 hrs by Griess method; type: functional, cell-based
RAW264.7 [12] = assay: Cytotoxicity against mouse RAW264.7 cells at 80 uM after 24 hrs by MTT assay; type: cell-based; settings: raw264.7, 24 h
Mus musculus [13] = assay: Antiinflammatory activity in ICR mouse assessed as reversal in LPS-induced weight loss at 12.5 to 200 mg/kg, ip administered for 5 days prior to LPS-challenge measured up to day 8 relative to control; type: functional, organism-based
RAW264.7 [14] = assay: Effect on MAPK p38 level in mouse LPS-induced RAW264.7 cells at 0.1 to 0.4 uM incubated for 2 hrs prior to LPS-challenge measured after 30 mins by Western blot analysis; type: functional, cell-based
RAW264.7 [15] = assay: Antiinflammatory activity in mouse RAW264.7 cells assessed as inhibition of LPS-stimulated IL-1beta mRNA expression at 0.1 to 0.4 uM incubated for 2 hrs prior to LPS-challenge measured after 8 hrs by quantitative real time PCR analysis; type: functional, cell-based
[16] = biological target: MAP kinase p38 (Mus musculus) (UniProt P47811+O08911+Q9WUI1+Q9Z1B7); assay: Inhibition of MAPK p38 in mouse LPS-induced RAW264.7 cells at 0.1 to 0.4 uM incubated for 2 hrs prior to LPS-challenge measured after 30 mins by Western blot analysis; type: cell-based
[17] = biological target: T1, NF-kappa-B inhibitor alpha (Mus musculus); assay: Inhibition of IkappaBalpha in mouse RAW264.7 cells assessed as inhibition of LPS-stimulated NF-kappaB p65 subunit translocation to nucleus at 0.1 to 0.4 uM incubated for 2 hrs prior to LPS-challenge measured after 30 mins by Western blot analysis; type: cell-based
RAW264.7 [18] = assay: Antiinflammatory activity in mouse RAW264.7 cells assessed as inhibition of LPS-induced iNOS protein expression incubated for 2 hrs prior to LPS-challenge measured after 24 hrs by Western blot analysis; type: functional, cell-based
RAW264.7 [19] = assay: Effect on JNK level in mouse LPS-induced RAW264.7 cells at 0.1 to 0.4 uM incubated for 2 hrs prior to LPS-challenge measured after 30 mins by Western blot analysis; type: functional, cell-based
RAW264.7 [20] = assay: Antiinflammatory activity in mouse RAW264.7 cells assessed as inhibition of LPS-stimulated IL-6 mRNA expression incubated for 2 hrs prior to LPS-challenge measured after 8 hrs by quantitative real time PCR analysis relative to control; type: functional, cell-based
RAW264.7 [21] = assay: Antiinflammatory activity in mouse RAW264.7 cells assessed as inhibition of LPS-induced NO production at 50 uM incubated for 2 hrs prior to LPS-challenge measured after 24 hrs by Griess method; type: functional
RAW264.7 [22] = assay: Antiinflammatory activity in mouse RAW264.7 cells assessed as inhibition of LPS-stimulated IL-6 mRNA expression at 0.1 to 0.4 uM incubated for 2 hrs prior to LPS-challenge measured after 8 hrs by quantitative real time PCR analysis; type: functional, cell-based
RAW264.7 [23] = assay: Antiinflammatory activity in mouse RAW264.7 cells assessed as inhibition of NO production after 24 hrs in presence of mifepristone; type: functional, cell-based
RAW264.7 [24] = assay: Antiinflammatory activity in mouse RAW264.7 cells assessed as inhibition of LPS-stimulated TNF-alpha mRNA expression at 0.2 to 0.4 uM incubated for 2 hrs prior to LPS-challenge measured after 8 hrs by quantitative real time PCR analysis; type: functional, cell-based
RAW264.7 [25] = assay: Inhibition of ERK phosphorylation in mouse LPS-induced RAW264.7 cells at 0.1 to 0.4 uM incubated for 2 hrs prior to LPS-challenge measured after 30 mins by Western blot analysis; type: cell-based

CC1(C)C(=O)C(C#N)=C[C@]2(C)C3=CC=C4[C@@H]5C[C@@](C)(C#N)CC[C@]5(C)CC[C@@]4(C)[C@]3(C)CC[C@@H]12
1000: Ratio (RAW264.7 [1])
Non-toxic: Activity (RAW264.7 [3]) | Activity (RAW264.7 [12])
99.1%: inhibition at 50 µM (RAW264.7 [21])
inactive: Activity (RAW264.7 [6]) | Activity (Mus musculus [7]) | Activity (Mus musculus [13]) | Activity (RAW264.7 [14]) | Activity (RAW264.7 [19]) | inhibition (RAW264.7 [20])
6.70: pIC50 (RAW264.7 [11])
active: Activity (Mus musculus [2]) | Activity (Mus musculus [4]) | inhibition (RAW264.7 [5]) | inhibition (RAW264.7 [8]) | inhibition [9] | inhibition [10] | inhibition (RAW264.7 [15]) Dose-dependent effect | inhibition [16] | inhibition [17] | inhibition (RAW264.7 [18]) Dose-dependent effect | inhibition (RAW264.7 [22]) Dose-dependent effect | inhibition (RAW264.7 [23]) | inhibition (RAW264.7 [24]) | inhibition (RAW264.7 [25])
